Values of other authors, collected in patent publication US20090196894A1, “Self Tanning Composition” (priority 2006, published 2009).

Settings: over the entire pH range, among the investigated hydroxyflavones

Compound: O=c1c(O)c(-c2ccc(O)c(O)c2)oc2cc(O)cc(O)c12 [quercetin, 3,3′,4′,5,7-pentahydrooxyflavone]
- antioxidative effect: highest activity
